Data set [1] deals with longitudinal muscle from the guinea pig ileum. Briefly: Inhibition of stimulated contraction in isolated ileum.
Method: Parallel platinum electrodes were used to deliver electrical current at 1 minute intervals at a voltage adequate to induce contraction of 90% of maximal.
Data set [2] has as its target T1, NBTI-specific adenosine transport site (Homo sapiens, UniProt Q99808).
T1 construct: incubated for 30 minutes with 0.5 mg neuronal membrane protein together with 0.5 nM [^3H]-NBTI; from tissue
T1 sequence (Q99808 1-456): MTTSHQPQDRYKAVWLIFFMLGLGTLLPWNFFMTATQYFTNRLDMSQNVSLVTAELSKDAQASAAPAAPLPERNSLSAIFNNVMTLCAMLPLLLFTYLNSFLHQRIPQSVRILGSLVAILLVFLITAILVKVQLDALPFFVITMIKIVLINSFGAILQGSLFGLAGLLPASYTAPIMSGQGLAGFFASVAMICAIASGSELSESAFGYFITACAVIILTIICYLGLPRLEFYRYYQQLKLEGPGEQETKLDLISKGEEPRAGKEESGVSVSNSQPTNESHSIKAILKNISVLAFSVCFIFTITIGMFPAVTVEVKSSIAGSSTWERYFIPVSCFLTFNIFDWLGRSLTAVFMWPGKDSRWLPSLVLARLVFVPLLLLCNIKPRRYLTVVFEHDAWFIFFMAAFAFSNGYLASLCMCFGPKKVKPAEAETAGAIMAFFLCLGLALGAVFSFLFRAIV
Briefly: [3H]-NBTI binding assay. The settings on record: 50% displacement of bound [3H]-NBTI (0.5 nM); neuronal membrane protein, 30 minutes, pH 7.4, room temperature; read-out: ED50 (the source's name). Here is the method: Increasing concentrations of the test compounds were incubated for 30 minutes with 0.5 mg neuronal membrane protein together with 0.5 nM [^3H]-NBTI in a Tris buffer (pH 7.4) at room temperature. The assays were quenched and membranes collected by rapid filtration. Filters were then solubilized and radioactivity determined by scintillation counting.

The subject of another data set is Isolated rat hearts. Briefly: Improved functional recovery in isolated hearts (Langendorff, post-ischemic LVDP). The following applies: 30 min ischemia, 30 min reperfusion, number in brackets = hearts. Here is the method: Isolated rat hearts were cannulated via the ascending aorta and attached to a perfusion apparatus according to the method of Langendorff. The hearts were perfused at a constant pressure of 100 cm of H2O with a modified Krebs-Henseleit buffer (pH 7.4) at 37°C. As a measure of heart function, left ventricular developed pressure (LVDP) was continuously monitored. Following equilibration of the hearts for a period of 30 min., the hearts were subjected to reduced flow i.e. ischemia, by reducing the pressure to 10 cm of H2O for 30 min. Flow was then restored by returning the pressure to its original level (100 cm of H2O) for a further 30 min.

In data set [3] the test system is coronary endothelial cells. The data set can be described thus: Inhibition of adenosine utilization in cell culture. The data set is classed as cell-based. The settings on record: for inhibition at 5 µM / inhibition at 50 µM: Endothelial cell, read-out: Inhibition of Adenosine Utilization (%); for Inhibition of Adenosine Utilization (%): 1 µM [3H] adenosine, 15 minutes. Here is the method:
Inhibition of adenosine utilization was determined by measuring the concentration of extracellular adenosine by scintillation counting following separation by thin layer chromatography (TLC).

The nature of data set [4]: Oral bioavailability and half-life in fasted adult beagles. The settings on record: dog, in vivo, fasted adult beagles. Here is the method: Heparinized blood and urine were collected at selected intervals over 24 hours. Each sample was chilled, centrifuged at 4°C and frozen prior to HPLC analysis.
For data set [5], the system named is platelet aggregation in human whole blood. The data set can be described thus: Inhibition of platelet aggregation in human whole blood. The format is cell-based. The following applies: 10 minutes at 37°C, 10 µM adenosine added 5 minutes before, ADP (6-25 µM) induced, impedance technique. Here is the method: Whole blood was drawn from healthy donors and collected in 0.1 vol. of sodium citrate to prevent coagulation. Platelet aggregation was measured by the impedance technique using a Whole Blood Aggregometer.

The mark [6] stands for this setting: Cavia porcellus, concentration which inhibited electrically stimulated contraction by 50%, read-out: IC50.

Results on 19 compounds are retold here after patent publication EP0495091B1 (Metabasis Therapeutics Inc., priority 1990, dated 1992).

Where “and” joins values, the source holds several entries; their conditions need not be identical. Equal values may be shown once. Read-outs that look alike come from different tables or passages of the source.

In the case of `Nc1c(C(=O)NCc2ccc(Cl)cc2Cl)ncn1[C@@H]1O[C@H](CO)[C@@H](O)[C@H]1O` [Compound No. 25, 5-amino-1-β-D-ribofuranosylimidazole-4-N-[(2,4-dichlorophenyl)methyl]carboxamide], the 50% inhibitory concentration (IC50) in data set [1] (Cavia porcellus) was determined as 20 µM. Moreover, the EC50 in data set [2] was determined as 72 µM. Further, the “Function Recovery % Baseline LVDP (% of hearts)” value in the data set on Isolated rat hearts (5 µM in perfusion buffer, listed as 25 (1-360)) was 86.8±2.3 (6) % and 72.4±1.6 (6) %. Also, in data set [3], the inhibition at 5 µM came out at 21 ± 1% and the inhibition at 50 µM was found to be 56 ± 2%.

Consider `NC[C@H]1O[C@@H](n2cnc(C(N)=O)c2N)[C@H](O)[C@@H]1O` [Compound No. 21, 5'-Amino-5'-deoxy-AICA-riboside], for which the IC50 in data set [1] (setting [6]) was 800 µM. Also, the bioavailability in data set [4] (po, 10 mg/kg IV bolus and 20 mg/kg solution via stomach tube, read-out: Absolute Oral Bioavailability %) came to 71%. Also, the half-life in data set [4] is 1.3 h. Further, the “Function Recovery % Baseline LVDP (% of hearts)” value with Isolated rat hearts (1 µM in perfusion buffer) was 77.0±4.4 (10) %; with Isolated rat hearts (5 µM in perfusion buffer) it was 81.0±3.2 (8) %.

Regarding `Nc1c(C(=O)NCc2ccc(Cl)cc2)ncn1[C@@H]1O[C@H](CO)[C@@H](O)[C@H]1O` [Compound No. 29, 5-amino-1-β-D-ribofuranosylimidazole-4-N-[(4-Chlorophenyl)methyl]carboxamide], in data set [5] (Homo sapiens, Platelet), half-maximal inhibition (IC50) was put at 90 µM. Besides, 60 µM corresponded to half-maximal inhibition in data set [1] (Cavia porcellus) (IC50). For the same compound, the EC50 in data set [2] is 100 µM. Also, the “Function Recovery % Baseline LVDP (% of hearts)” value with Isolated rat hearts (1 µM in perfusion buffer) is 76.7±2.9 (7) %. For the same compound, in data set [3], the inhibition at 5 µM stood at 41 ± 11% and the inhibition at 50 µM came to 67 ± 8%.

As to `Nc1c(C(=O)NC2CC3CCC2C3)ncn1[C@@H]1O[C@H](CO)[C@@H](O)[C@H]1O` (stereo partly drawn) [Compound No. 45, 5-Amino-1-β-D-ribofuranosylimidazole-4-N-(2-endo-norbornyl)carboxamide], the IC50 in data set [1] (Cavia porcellus) was determined as 100 µM. In addition, the EC50 in data set [2] was 90 µM.

In data set [1] (Cavia porcellus), `Nc1c(C(=O)SCc2ccc([N+](=O)[O-])cc2)ncn1[C@@H]1O[C@H](CO)[C@@H](O)[C@H]1O` showed a half-maximal inhibitory concentration (IC50) of 10 µM. The EC50 in data set [2] amounted to 0.5 µM. In addition, the “Function Recovery % Baseline LVDP (% of hearts)” value in the data set on Isolated rat hearts (1 µM in perfusion buffer) was 74.0±2.8 (6) %. In addition, in data set [3], the inhibition at 5 µM was determined as 17 ± 3% and the inhibition at 50 µM worked out at 19 ± 2%.

Regarding `CCCCO[C@@H]1[C@H](O)[C@@H](CO)O[C@H]1n1cnc(C(N)=O)c1N` [Compound No. 32, 5-amino-1-(2-O-n-butyl-β-D-ribofuranosyl) imidazole-4-carboxamide], the IC50 in data set [5] (Homo sapiens, Platelet) worked out at 350 µM; in data set [1] (setting [6]), 100 µM.

With `NC[C@H]1O[C@@H](n2cnc(C(=O)NCc3ccc([N+](=O)[O-])cc3)c2N)[C@H](O)[C@@H]1O` [Compound No. 72], 300 µM corresponded to half-maximal inhibition in data set [5] (IC50).

For `Nc1c(C(=O)NCc2cccc([N+](=O)[O-])c2)ncn1[C@@H]1O[C@H](CO)[C@@H](O)[C@H]1O` [Compound No. 28, 5-amino-1-β-D-ribofuranosylimidazole-4-N-[(3-nitrophenyl)methyl]carboxamide], in data set [5] (Homo sapiens, Platelet), the midpoint of inhibition, the IC50, lay at 180 µM. The EC50 in data set [2] was 15 µM. Moreover, in data set [3], the inhibition at 5 µM worked out at 17 ± 3% and the inhibition at 50 µM was determined as 47 ± 2%.

As for `Nc1c(C(=O)NCCc2ccc([N+](=O)[O-])cc2)ncn1[C@@H]1O[C@H](CO)[C@@H](O)[C@H]1O` [Compound No. 59], the IC50 in data set [5] (Homo sapiens, Platelet) was determined as 70 µM. Also, the EC50 in data set [2] came out at 2 µM. Besides, the “Function Recovery % Baseline LVDP (% of hearts)” value with Isolated rat hearts (1 µM in perfusion buffer) is on record as 75.8±2.2 (7) %.

In the case of `Cc1ccc(CNC(=O)c2ncn([C@@H]3O[C@H](CO)[C@@H](O)[C@H]3O)c2N)cc1` [Compound No. 30, 5-amino-1-β-D-ribofuranosylimidazole-4-N-[(4-methylphenyl)methyl]carboxamide], the half-inhibitory concentration (IC50) in data set [1] (Cavia porcellus) was 20 µM. Also, the EC50 in data set [2] was determined as 225 µM. In data set [3], the inhibition at 5 µM amounted to 21 ± 1% and the inhibition at 50 µM stood at 49 ± 4%.

Consider `C[C@H]1O[C@@H](n2cnc(C(=O)NCc3ccc(Cl)cc3)c2N)[C@H](O)[C@@H]1O` [Compound No. 61, 5-Amino-1-(5-deoxy-β-D-ribofuranosyl) imidazole-4N-[(4-chlorophenyl)methyl]carboxamide], for which, in data set [5] (Homo sapiens, Platelet), half-maximal inhibition (IC50) required 171 µM. Further, the EC50 in data set [2] worked out at 32 µM. In data set [3], the inhibition at 5 µM came out at 37 ± 28% and the inhibition at 50 µM is 72 ± 5%.

For the compound `NC(=O)c1ncn([C@@H]2O[C@H](CCl)[C@@H](O)[C@H]2O)c1N` [Compound No. 26, 5-amino-1-(5-chloro-5-deoxy-β-D-ribofuranosyl) imidazole-4-carboxamide], the half-inhibitory concentration (IC50) in data set [1] (concentration which inhibited electrically stimulated contraction by 50%, read-out: IC50) turned out to be 200 µM. Besides, the “Function Recovery % Baseline LVDP (% of hearts)” value in the data set on Isolated rat hearts (5 µM in perfusion buffer) is recorded as 70.7±4.1 (8) %.

For the compound `COc1ccc(CNC(=O)c2ncn([C@@H]3O[C@H](CO)[C@@H](O)[C@H]3O)c2N)cc1` [Compound No. 39, 5-Amino-1-β-D-ribofuranosyl-imidazole-4-N-(p-methoxybenzyl)carboxamide], in data set [1] (Cavia porcellus), the IC50 is 500 µM. Moreover, the EC50 in data set [2] was 600 µM. In addition, in data set [3], the inhibition at 5 µM was found to be 7 ± 4% and the inhibition at 50 µM came to 29 ± 1%.

`Nc1c(C(=O)NCc2ccccc2Cl)ncn1[C@@H]1O[C@H](CO)[C@@H](O)[C@H]1O` [Compound No. 24, 5-Amino-1-β-D-ribofuranosylimidazole-4-N-[(2-chlorophenyl)methyl]carboxamide] had a half-maximal inhibitory concentration (IC50) in data set [1] (Cavia porcellus) of 400 µM. Moreover, the EC50 in data set [2] is 300 µM.

With `[N-]=[N+]=NC[C@H]1O[C@@H](n2cnc(C(=O)NCc3ccc([N+](=O)[O-])cc3)c2N)[C@H](O)[C@@H]1O` [Compound No. 71, 5-Amino-1-(5-azido-5-deoxy-B-D-ribofuranosyl)imidazole-4-N-[(4-nitrophenyl)methyl]carboxamide], the half-maximal inhibitory concentration (IC50) in data set [5] amounted to 40 µM. Besides, the entries for the “Inhibition of Adenosine Utilization (%)” value in data set [3] (5 µM test compound) and in data set [3] (50 µM test compound) were 10 ± 3% and 31 ± 11%, respectively.

With `NC(=O)c1nc(S)n([C@@H]2O[C@H](CO)[C@@H](O)[C@H]2O)c1N` [Compound No. 27, 5-amino-2-thio-1-β-D-ribofuranosyl imidazole-4-carboxamide], the IC50 in data set [5] (Homo sapiens, Platelet) came to 950 µM; in data set [1] (Cavia porcellus), 500 µM. Besides, the EC50 in data set [2] came out at 344 µM. For the same compound, the “Function Recovery % Baseline LVDP (% of hearts)” value with Isolated rat hearts (5 µM in perfusion buffer) is recorded as 74.6±3.7 (7) %.

In turn, `Nc1c(C(=O)NCc2ccc(Br)cc2)ncn1[C@@H]1O[C@H](CO)[C@@H](O)[C@H]1O` [Compound No. 56, 5-Amino-1-β-D-ribofuranosyl-imidazole-4-N-[(4-bromophenyl)methyl]carboxamide] gave an IC50 in data set [5] (Homo sapiens, Platelet) of 75 µM. Further, the EC50 in data set [2] was 32 µM. In data set [3], the inhibition at 5 µM is 55 ± 7% and the inhibition at 50 µM stood at 65 ± 9%.

On to `NC(=O)c1nc(Sc2ccccc2)n([C@@H]2O[C@H](CO)[C@@H](O)[C@H]2O)c1N` [Compound No. 43, 5-Amino-2-thiophenyl-1-β-D-ribofuranosylmidazole-4-carboxamide], for which the concentration for half-maximal inhibition (IC50) in data set [5] (Homo sapiens, Platelet) amounted to 620 µM; in data set [1] (Cavia porcellus) it was 200 µM. Also, the EC50 in data set [2] is 71 µM.

As to `Nc1c(C(=O)NCc2ccc([N+](=O)[O-])cc2)ncn1[C@@H]1O[C@H](CO)[C@@H](O)[C@H]1O` [Compound No. 23, 5-Amino-1-β-D-ribofuranosyl-imidazole-4-N-[(4-nitrophenyl)methyl]carboxamide], in data set [5] (Homo sapiens, Platelet), inhibition was half-maximal at 38 µM (IC50). In data set [1] (Cavia porcellus), this compound yielded an IC50 of 3 µM. In data set [2], the EC50 is 3 µM. Besides, the “Function Recovery % Baseline LVDP (% of hearts)” value in the data set on Isolated rat hearts (1 µM in perfusion buffer) is recorded as 79.0±2.3 (6) %. Besides, in data set [3], the inhibition at 5 µM amounted to 27 ± 4% and the inhibition at 50 µM was determined as 63 ± 2%.
